# Read-outs that look alike come from different tables or passages of the source.
# How the values were obtained:
# [1] = test system: Human iPSC derived iCell GABAergic Neurons; assay: Human iPSC neurite outgrowth assay; type: cell-based
# Description: Biological Example 4: Toxicology Study
# Human iPSC Neurite Outgrowth Assay
# Human induced pluripotent stem cell (iPSC) derived iCell GABAergic Neurons (Cellular Dynamics Inc.) were seeded at a density of 67,500 cells per square centimeter into 384 well plates. The neurons were plated for 1 hour in attachment media before exchange for serum-free growth media (Cellular Dynamics Inc.). The serum-free growth media was exchanged for fresh media and the plated neurons were treated with test compounds and control compounds at 6 concentrations (1 nM-100 μM) at 4 and 24 hour timepoints in triplicate wells. Optimum neuron cell attachment to the plates was obtained at the 24 hour timepoint. Vincristine was utilized as the positive control for toxic inhibition of neurite outgrowth and 0.1% DMSO treatment was used for control treatment of neurons. Celltracker and DRAQ7 stains were applied prior to fixation of cells to assess nuclear and cell viability. Cells were then fixed for 20 minutes in 4% formaldehyde in PBS containing Hoechst dye and then fixative was replaced with PBS twice. High content imaging was performed with 9 fields of 20× magnification on a CX7 HCS system with an algorithm to enable quantification of neurite lengths and neurite branch points in all treatment groups. The results of the counts and measurements were then analyzed by the strictly standardized mean difference (SSMD) method of analysis to measure effect size for any decreases in mean neurite total length per cell (microns) or changes in mean branch point counts per cell (PhenoVista Biosciences, San Diego). FIG. 1 depicting plots of mean branch point counts per cell as a function of concentration for Vincristine, RG783/R07020322, and Compound 73 (free base, purified without addition of TFA). […]
# [2] = test system: HBV-infected NTCP-HepG2 cells, secreted HBsAg; assay: microbe, parasite or virus in culture; type: cell-based, hepatitis B virus (genotype D, AD38-derived); conditions: secreted HBsAg in supernatant after 5 days, geometric mean of minimum four determinations, read-out: NTCP HBsAg EC50
# Outline: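 NTCP-HepG2 cells were infected with genotype D HBV at 4000 genome equivalents/cell, then seeded 4 days post-infection with serially diluted compounds (1% DMSO) for 5 days. Supernatant HBsAg was measured by chemiluminescent MSD immunoassay. EC50 from four-parameter fit, geometric mean of ≥4 determinations.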
# [3] = In vitro metabolic stability, hepatocyte stability (dog); type: in vitro ADME; conditions: Dog hepatocytes, read-out: hepatocyte stability T1/2 (converted)
# Description: (§1) Biological Example 3: In Vitro Metabolic Stability
# (§2) For hepatocyte stability incubations, cells were obtained from BioreclamationIVT (Baltimore, Md.), thawed according to the manufacturer's directions, and resuspended to a final concentration of 1×10^6 cells/mL in Krebs-Henseleit buffer prewarmed to 37° C. The total cell count and the proportion of viable cells were determined by Trypan Blue dye exclusion using a hemocytometer. The final concentration of test compounds and positive controls was 2 μM. Incubations were carried out in duplicate wells of a 24-well plate out with gentle shaking at 37° C. under a humid atmosphere of 95% air/5% CO2 (v/v). Aliquots (50 μL) were removed after 0, 1, 3, and 6 hours and added to 100 μL quenching solution. Samples were then processed and analyzed in a manner similar to the microsomal stability samples.
# (§3) Quantification of test compounds and positive controls were performed using analyte/internal standard peak area ratios (PAR) measured on a Q-Exactive mass spectrometer (Thermo Scientific, San Jose, Calif.) coupled to an Aria Transcend LX-4 multiplex UHPLC system (Thermo Scientific, San Jose, Calif.). […] Half-lives of compounds in the incubations were calculated from extracted data using GMSU/QuickCalc (Gubbs, Inc.) and data are summarized in the following Table 2.
# [4] = In vitro metabolic stability, hepatocyte stability (human); type: in vitro ADME; conditions: Human hepatocytes, read-out: hepatocyte stability T1/2 (converted)
# Description: as §1, §2, §3
# [5] = In vitro metabolic stability, hepatocyte stability (cynomolgus monkey); type: in vitro ADME; conditions: Cyno hepatocytes, read-out: hepatocyte stability T1/2 (converted)
# Description: as §1, §2, §3
# [6] = In vitro metabolic stability, hepatocyte stability (rat); type: in vitro ADME; conditions: Rat hepatocytes, read-out: hepatocyte stability T1/2 (converted)
# Description: as §1, §2, §3
# MT-4 cytotoxicity assay = type: cell-based, human; conditions: human, five days, Cell Titer Glo luminescence; read-out: MT-4 CC50
# [7] = test system: MT-4 cell line (HTLV-1 transformed, human T lymphoblastoid cells); assay: MT-4 cytotoxicity assay; type: cell-based; conditions: five days, Cell Titer Glo luminescence
smiles,measurement,setting,value
CC[C@]1(O)C[C@H]2CN(CCc3c([nH]c4ccccc34)[C@@](C(=O)OC)(c3cc4c(cc3OC)N(C=O)[C@H]3[C@@](O)(C(=O)OC)[C@H](OC(C)=O)[C@]5(CC)C=CCN6CC[C@]43[C@@H]65)C2)C1 [Vincristine],neurite total length and branch point counts,"[1]; 4 and 24 hour treatments, vs 0.1% DMSO treated neurons, SSMD analysis",significant decreases
same,Branch Point Count SSMD Values,"[1]; 4 hr, 0.001 μM, vs 0.1% DMSO",NS (NS = no significant effect and >−3 SSMD Values.)
same,Decreased Neurite Length SSMD Values,"[1]; 4 hr, 0.001 μM, vs 0.1% DMSO",NS (NS = no significant effect and >−3 SSMD Value.)
same,Branch Point Count SSMD Values,"[1]; 4 hr, 0.01 μM, vs 0.1% DMSO",NS (NS = no significant effect and >−3 SSMD Values.)
same,Decreased Neurite Length SSMD Values,"[1]; 4 hr, 0.01 μM, vs 0.1% DMSO",NS (NS = no significant effect and >−3 SSMD Value.)
same,Branch Point Count SSMD Values,"[1]; 4 hr, 0.1 μM, vs 0.1% DMSO",NS (NS = no significant effect and >−3 SSMD Values.)
same,Decreased Neurite Length SSMD Values,"[1]; 4 hr, 0.1 μM, vs 0.1% DMSO",NS (NS = no significant effect and >−3 SSMD Value.)
same,Branch Point Count SSMD Values,"[1]; 4 hr, 1 μM, vs 0.1% DMSO",NS (NS = no significant effect and >−3 SSMD Values.)
same,Decreased Neurite Length SSMD Values,"[1]; 4 hr, 1 μM, vs 0.1% DMSO",−7.3
same,Branch Point Count SSMD Values,"[1]; 4 hr, 10 μM, vs 0.1% DMSO",−3.0
same,Decreased Neurite Length SSMD Values,"[1]; 4 hr, 10 μM, vs 0.1% DMSO",−5.7
same,Branch Point Count SSMD Values,"[1]; 4 hr, 100 μM, vs 0.1% DMSO",−3.5
same,Decreased Neurite Length SSMD Values,"[1]; 4 hr, 100 μM, vs 0.1% DMSO",−10
same,Branch Point Count SSMD Values,"[1]; 24 hr, 0.001 μM, vs 0.1% DMSO",NS (NS = no significant effect and >−3 SSMD Values.)
same,Decreased Neurite Length SSMD Values,"[1]; 24 hr, 0.001 μM, vs 0.1% DMSO",NS (NS = no significant effect and >−3 SSMD Value.)
same,Branch Point Count SSMD Values,"[1]; 24 hr, 0.01 μM, vs 0.1% DMSO",NS (NS = no significant effect and >−3 SSMD Values.)
same,Decreased Neurite Length SSMD Values,"[1]; 24 hr, 0.01 μM, vs 0.1% DMSO",NS (NS = no significant effect and >−3 SSMD Value.)
same,Branch Point Count SSMD Values,"[1]; 24 hr, 0.1 μM, vs 0.1% DMSO",NS (NS = no significant effect and >−3 SSMD Values.)
same,Decreased Neurite Length SSMD Values,"[1]; 24 hr, 0.1 μM, vs 0.1% DMSO",NS (NS = no significant effect and >−3 SSMD Value.)
same,Branch Point Count SSMD Values,"[1]; 24 hr, 1 μM, vs 0.1% DMSO",−3.1
same,Decreased Neurite Length SSMD Values,"[1]; 24 hr, 1 μM, vs 0.1% DMSO",−4.9
same,Branch Point Count SSMD Values,"[1]; 24 hr, 10 μM, vs 0.1% DMSO",−3.6
same,Decreased Neurite Length SSMD Values,"[1]; 24 hr, 10 μM, vs 0.1% DMSO",−5.4
same,Branch Point Count SSMD Values,"[1]; 24 hr, 100 μM, vs 0.1% DMSO",−6.0
same,Decreased Neurite Length SSMD Values,"[1]; 24 hr, 100 μM, vs 0.1% DMSO",−6.6
same,neuron counts or neuron viability,"[1]; any of the tested concentrations (1 nM-100 μM), vs 0.1% DMSO control, SSMD analysis",No significant changes of effect
COCCCOc1cc2c(cc1OC)-c1cc(=O)c(C(=O)O)cn1[C@H](C(C)C)C2 [RG7834/R07020322],neurite total length and branch point counts,[1],significant decreases
same,Decreased Neurite Length SSMD Values,"[1]; human, 4 h, 10 μM",−3.8
same,Branch Point Count SSMD Values,"[1]; human, 4 h, 100 μM",−5.2
same,Decreased Neurite Length SSMD Values,"[1]; human, 4 h, 100 μM",−4.0
same,Branch Point Count SSMD Values,"[1]; human, 24 h, 1 μM",−3.3
same,Decreased Neurite Length SSMD Values,"[1]; human, 24 h, 1 μM",−3.4
same,Branch Point Count SSMD Values,"[1]; human, 24 h, 10 μM",−3.4
same,Decreased Neurite Length SSMD Values,"[1]; human, 24 h, 10 μM",−5.9
same,Branch Point Count SSMD Values,"[1]; human, 24 h, 100 μM",−5.0
same,Decreased Neurite Length SSMD Values,"[1]; human, 24 h, 100 μM",−4.5
"COCCCOc1cc2c(cc1Cl)-c1cc(=O)c(C(=O)O)cn1N1[C@@H]2CCC1(C)C (single isomer, unassigned) [Example 5]",EC50,"[2]; Hepatitis B virus, 120 h",1.7 nM
same,half-life at 2 μM,[3],> 39.5 h
same,half-life at 2 μM,[4],> 39.5 h
same,half-life at 2 μM,[5],20.8 h
same,half-life at 2 μM,[6],> 39.5 h
same,CC50 at 5 days,MT-4 cytotoxicity assay,> 10000 nM
"COCCCOc1cc2c(cc1COC)-c1cc(=O)c(C(=O)O)cn1N1[C@@H]2CCC1(C)C [Example 73, (R)-11-(methoxymethyl)-12-(3-methoxypropoxy)-3,3-dimethyl-8-oxo-2,3,8,13b-tetrahydro-1H-pyrido[2,1-a]pyrrolo[1,2-c]phthalazine-7-carboxylic acid]",EC50,"[2]; Hepatitis B virus, 120 h",1.9 nM
same,neurite total length and branch point counts,[1],No significant effects
same,CC50 at 5 days,MT-4 cytotoxicity assay,> 10000 nM
"COCCCOc1cc2c(cc1Cl)-c1cc(=O)c(C(=O)O)cn1[C@H]1[C@@H]2CCC1(C)C (single isomer, unassigned) [Example 33]",EC50,"[2]; Hepatitis B virus, 120 h",1.8 nM
same,half-life at 2 μM,[3],5.7 h
same,half-life at 2 μM,[4],21.6 h
same,half-life at 2 μM,[5],5.6 h
same,half-life at 2 μM,[6],1.6 h
same,CC50 at 5 days,MT-4 cytotoxicity assay,7900 nM
"COCCCOc1cc2c(cc1Cl)-c1cc(=O)c(C(=O)O)cn1[C@H]1[C@@H]2CCC1(C)C (racemic) [Example 32, cis-10-chloro-11-(3-methoxypropoxy)-3,3-dimethyl-7-oxo-1,2,3,3a,7,12b-hexahydrocyclopenta[c]pyrido[2,1-a]isoquinoline-6-carboxylic acid]",EC50,[2],120 nM
same,CC50,[7],6000 nM
"COCCCOc1cc2c(cc1Cl)-c1cc(=O)c(C(=O)O)cn1[C@H]1[C@H]2CCC1(C)C (racemic) [Example 31, trans-10-Chloro-11-(3-methoxypropoxy)-3,3-dimethyl-7-oxo-1,2,3,3a,7,12b-hexahydrocyclopenta[c]pyrido[2,1-a]isoquinoline-6-carboxylic acid]",EC50,[2],6.4 nM
same,CC50 at 5 days,MT-4 cytotoxicity assay,> 10000 nM

# — patent publication US10442804B2, “Compounds for the treatment of hepatitis B virus infection” (Gilead Sciences, Inc., priority 2017, dated 2019)
